Measurements reported in patent US10111884B2, “Methods and compositions for treating viral infections” (THE HONG KONG UNIVERSITY OF SCIENCE AND TECHNOLOGY, priority 2012, dated 2018).
Where two headings read alike, the source gives them in different places. Blank lines part the entries; values can stand above or below the compound they belong to.

How the values were obtained:
CMV [1] = assay: CMV plaque reduction assay in HFF monolayers; format: cell-based, human cytomegalovirus
Description: The CMV strains used were: AD169 (obtained from the American Type Culture Collection), and TB40/E. In addition, low-passage clinical isolates CI704, and CI893, recovered at the Hadassah Clinical Virology Laboratory from the urine of congenitally-infected newborns, and propagated for 3-5 passages, were used for some experiments. All CMV strains were propagated and titered in human foreskin fibroblasts (HFF) cells. Cell-free virus stocks and cell-associated clinical isolates were maintained at −70° C. Viral stocks were titered by serial 10-fold dilution in 24-well tissue culture plates containing HFF monolayers overlaid with agarose-medium. After incubation for 7 to 10 days, plaques were enumerated, and virus titer was determined as plaque forming units (PFU) per milliliter (ml). Stocks of artemisone, artemiside, RW177, compound IX, and artesunate were freshly prepared at 10 mM concentration in DMSO. Ganciclovir, stored as 10 mM stock was used in comparative assays.
Cell monolayers were inoculated in 24-well culture plates with 0.2 ml of virus suspension containing 60 to 100 PFU per well. After adsorption for 60 min at 37° C., the inoculum was removed, and culture medium was replaced with agarose-medium overlay containing the tested drug. The following final drug concentrations were used: Artemisone: 0, 0.1, 1, 5, 10, 25, and 50 μM; Artesunate: 0, 1, 5, 10, 25, 50, and 100 μM; Ganciclovir, artemiside, compound IX and RW177: 0, 0.1, 1, 5, 10, 25, and 50 μM. Plates were incubated for 10 days at 37° C. in a 5% CO2 incubator. Plaques were then counted microscopically. The drug concentration required to reduce the number of plaques to 50% of the control value (IC50), was calculated.
(§1) Antiviral activity of artemisone was determined by applying various drug concentrations to a growing virus in cell culture, using a standard plaque reduction assay. Artesunate, a compound known to have significant anti-viral activity, was tested in parallel. Ganciclovir was used as an additional positive control. The IC50 values of at least three separate experiments with each drug and virus were averaged, and the results are reported as mean±standard deviation values. Representative curves of plaque reduction assay for artemisone and artesunate are depicted in FIGS. 2A and 3A, respectively.

[2] = test system: human foreskin fibroblasts (HFF) cells; assay: Cytotoxicity observed alongside plaque reduction assay; format: cell-based
CMV [3] = assay: CMV antiviral activity in retinal epithelial cells (RPE) culture; format: cell-based, human cytomegalovirus
Description: as §1

CMV [4] = assay: Quantification of viral DNA in infected cells by real-time PCR (CMV gB gene); format: cell-based, human cytomegalovirus; conditions: FIGS. 2B, 3B
Description: Viral DNA quantity in infected cells with and without added drugs (expressed as genome copies/well) was determined by real-time PCR assay, following DNA extraction from cells, with the use of primers and probe derived from the CMV gB gene.
The results of Example 1 were confirmed by quantitation of viral DNA using real-time PCR. […] Representative curves of viral DNA accumulation for artemisone and artesunate are depicted in FIGS. 2B and 3B, respectively.

[5] = test system: HCMV strain AD169 IE1/2 antigen; assay: Immunofluorescence assay of viral immediate early (IE1/2) gene expression; format: cell-based, human cytomegalovirus; conditions: 24 hpi; for viral IE gene expression (in words): 25 μM
Description: (§2) Human foreskin fibroblasts (HFF) were infected with HCMV strain AD169. At 1 hour post infection (hpi), artemisone (25 μM) or ganciclovir (25 μM) were added to the growth medium, and the cells were further incubated in the presence of the drug, until prepared for immunofluorescence analysis at 24 and 72 hpi—to analyze the expression of IE and pp65, respectively. Control untreated infected cells, and mock-infected cells were analyzed in parallel.
(§3) Cells grown on 8-well glass slides were infected at a multiplicity of infection (moi) of 0.1 PFU/cell. Supernatant was removed at 24 and 72 hpi, and cells were washed 3 times with PBS and fixed with 3.7% formaldehyde for 30 minutes at room temperature. Cells were washed 5 times with PBS+1% NH4Cl, permeabilized by 0.1% TX100 for 5 minutes and washed 5 times with PBS+1% NH4Cl. After 1 hour of blocking using 1% BSA in PBS, the indicated primary monoclonal antibodies (IE1/2 or pp65) were added to the cells in appropriate dilution in 0.5% BSA in PBS and incubated either at room temperature for 2 hours or overnight at 4° C. The secondary antibody was added to the cells in appropriate dilution in PBS containing 0.5% BSA for 30 minutes at room temperature and washed by PBS.
(§4) Following mounting with commercial mounting media, with addition of 4′,6-diamidino-2-phenylindole (DAPI) nuclear stain (yielding nuclear blue stain in all cells), the cells were analyzed by fluorescence microscopy. Results were monitored on at least 3 independent experiments, scoring at least 5 fields (of between 500 and 800 cells each) for each treatment arm.

[6] = test system: HCMV strain AD169 pp65 antigen; assay: Immunofluorescence assay of viral late (pp65) gene expression; format: cell-based, human cytomegalovirus; conditions: 72 hpi; for viral late (pp65) gene expression (in words): 25 μM
Description: as §2, §3, §4

[7] = male rats, 50 mg/kg for 14 days; cited from earlier work
[8] = preclinical in vitro and in vivo screens; cited from earlier work
human endothelial cells = conditions: D'Alessandro et al., 2007; cited from earlier work
HCMV strain TB40/E = assay: Antiviral drug susceptibility in ex-vivo HCMV-infected decidual organ cultures (normalized viral DNA); format: cell-based, human cytomegalovirus; conditions: Human betaherpesvirus 5, TB40/E 10^5 PFU/well, 8 dpi, read-out: IC50 (drug concentration required to reduce normalized tissue viral DNA copy number by 50%)
Description: For infection of decidual organ cultures, the tissues were placed in 48-well plates (˜5 slices/well to maintain optimal viability) immediately after the sectioning and inoculated with the indicated virus (10^4 plaque forming units/well, unless indicated otherwise) for 12 hours to allow effective viral adsorption. Following viral adsorption, the cultures were washed extensively and further incubated for the duration of the experiment with replacement of the culture medium every 2-3 days.
DNA and RNA were extracted from the samples using the QIAamp DNA Mini Kit extraction kit and RNeasy Mini Kit (QIAGEN, Hilden, Germany) respectively, according to the manufacturer's instructions. The purified DNA samples were subjected to a quantitative real-time PCR reaction on a 7900HT Real Time PCR system (Applied Biosystems, Foster City, Calif., USA), using primers and probes derived from the HCMV glycoprotein B (gB) as described in Boeckh et al., 2004, J. Clin. Microbiol., 42, 1142-1148. […] The purified RNA samples were subjected to reverse transcription using GoScript™ (Promega, Madison, USA), followed by quantitative real-time PCR of the late HCMV R160461 spliced mRNA as described in White et al., 2004, J. Virol., 78, 1817-1830. […]

[9] = Human betaherpesvirus 5, 240 h, read-out: IC50 (drug concentration required to reduce the number of plaques to 50% of control), mean ± standard deviation
[10] = IE1 ± IE2 antigen, drug 25 μM, HFF, AD169
[11] = pp65 antigen, drug 25 μM, HFF, AD169

SMILES: CC1CCC2[C@@H](C)[C@H](N3CCS(=O)(=O)CC3)OC3O[C@]4(C)CCC1C32OO4 (stereo in doubt) [Artemisone]
IC50 (CMV [1]; [9]): 900 ± 300 nM
IC50 (CMV [1]; Human betaherpesvirus 5, representative curve, FIG. 2A / FIG. 3A, read-out: IC50 value for this assay (inhibition of CMV plaque formation, dose response curve)): 1200 nM
cytotoxicity [2]: no cytotoxicity
antiviral activity compared to artesunate (CMV [3]): Superior antiviral activity
antiviral efficacy by quantitation of viral DNA (CMV [4]): far superior to that of artesunate
viral IE gene expression (in words) [5]: significant reduction
CMV antigen-positive cells (%) [5, 10]: 0%
viral late (pp65) gene expression (in words) [6]: highly efficient reduction
CMV antigen-positive cells (%) [6, 11]: 0%
tolerability [7]: no effect as compared to controls
neurotoxicity [8]: does not elicit neurotoxicity
anti-angiogenic effect compared to dihydroartemisinin (human endothelial cells): significantly less anti-angiogenic than dihydroartemisinin

SMILES: C[C@H]1[C@H](OC(=O)CCC(=O)O)O[C@@H]2O[C@@]3(C)CC[C@H]4[C@H](C)CC[C@@H]1[C@@]24OO3 [Artesunate, artesunate, reference compound]
IC50 (CMV [1]; [9]): 10800 ± 4200 nM
IC50 (CMV [1]; Human betaherpesvirus 5, read-out: IC50 value for this assay (inhibition of CMV plaque formation, dose response curve)): 15000 nM

SMILES: Nc1nc(O)c2ncn(COC(CO)CO)c2n1 [Ganciclovir, ganciclovir]
viral IE gene expression (in words) [5]: did not inhibit IE gene expression
CMV antigen-positive cells (%) [5, 10]: 5.97%
CMV antigen-positive cells per field (N) [5, 10]: 33 ± 5
viral late (pp65) gene expression (in words) [6]: highly efficient reduction
CMV antigen-positive cells (%) [6, 11]: 0.18%
CMV antigen-positive cells per field (N) [6, 11]: 1 ± 0.25
IC50 (HCMV strain TB40/E): 1500 nM

SMILES: Nc1nc2c(ncn2COCCO)c(=O)[nH]1 [acyclovir]
IC50 (HCMV strain TB40/E): 18300 nM

SMILES: C[C@H]1[C@H](N2CCSCC2)O[C@@H]2O[C@@]3(C)CC[C@H]4[C@H](C)CC[C@@H]1[C@@]24OO3 [artemiside, reference compound]
IC50 (CMV [1]; [9]): > 40000 nM

IC50 (CMV [1]; Human betaherpesvirus 5, 240 h, at least three separate experiments averaged, 10 days incubation, read-out: IC50 (drug concentration required to reduce the number of plaques to 50% of control), mean ± standard deviation): 2100 ± 600 nM
SMILES: CC1CCC2[C@@H](C)[C@H](NS(N)(=O)=O)OC3O[C@]4(C)CCC1C32OO4 (stereo partly drawn) [compound IX]
